Read-outs that look alike come from different tables or passages of the source.
Key:
[1] = tested on: Z-138 cells; assay: Z-138 Proliferation Assay (Cell Titer Glo, 5 days); assay type: cell-based; conditions: Homo sapiens, 120 h, Table A-2, 5 days, top concentration 20 μM
From the text: Z-138 Proliferation Assay
Z-138 suspension cells were purchased from ATCC (American Type Culture Collection, Manassas, Va.). RPMI/Glutamax medium, penicillin-streptomycin, heat inactivated fetal bovine serum were purchased from Life Technologies, Grand Island, N.Y., USA. V-bottom polypropylene 384-well plates were purchased from Greiner Bio-One, Monroe, N.C., USA. Cell culture 384-well white opaque plates were purchased from Perkin Elmer, Waltham, Mass., USA. Cell-Titer Gb® was purchased from Promega Corporation, Madison, Wis., USA. SpectraMax M5 plate reader was purchased from Molecular Devices LLC, Sunnyvale, Calif., USA.
Z-138 suspension cells were maintained in growth medium (RPMI 1640 supplemented with 10% v/v heat inactivated fetal bovine serum and cultured at 37° C. under 5% CO2. Under assay conditions, cells were incubated in assay medium (RPMI 1640 supplemented with 10% v/v heat inactivated fetal bovine serum and 100 units/mL penicillin-streptomycin) at 37° C. under 5% CO2.
For the assessment of the effect of compounds on the proliferation of the Z-138 cell line, exponentially growing cells were plated in 384-well white opaque plates at a density of 10,000 cells/ml in a final volume of 50 μl of assay medium. A compound source plate was prepared by performing triplicate nine-point 3-fold serial dilutions in DMSO, beginning at 10 mM (final top concentration of compound in the assay was 20 μM and the DMSO was 0.2%). A 100 nL aliquot from the compound stock plate was added to its respective well in the cell plate. […] After addition of compounds, assay plates were incubated for 5 days at 37° C., 5% CO2, relative humidity >90%.
Cell viability was measured by quantitation of ATP present in the cell cultures, adding 35 μl of Cell Titer Glo® reagent to the cell plates. Luminescence was read in the SpectraMax M5 microplate reader. The concentration of compound inhibiting cell viability by 50% was determined using a 4-parametric fit of the normalized dose response curves.

[2] = target: T1, PRMT5/MEP50 (Homo sapiens, UniProt O14744); assay: PRMT5 Biochemical Assay (PRMT5/MEP50 enzyme assay on peptide substrate, 3H-SAM Flashplate)
T1 construct: Expressed full-length human Flag-PRMT5/6His-MeP50 protein complex was purified; made in house; host or cells: Spodoptera frugiperda (SF9) insect cells, baculovirus (pDEST8)

[3] = Table A-2, PRMT5/MEP50 4 nM, 3H-SAM 75 nM, peptide 40 nM, read-out: Biochemical IC50

T1 sequence (O14744 with tags, fused parts or gaps): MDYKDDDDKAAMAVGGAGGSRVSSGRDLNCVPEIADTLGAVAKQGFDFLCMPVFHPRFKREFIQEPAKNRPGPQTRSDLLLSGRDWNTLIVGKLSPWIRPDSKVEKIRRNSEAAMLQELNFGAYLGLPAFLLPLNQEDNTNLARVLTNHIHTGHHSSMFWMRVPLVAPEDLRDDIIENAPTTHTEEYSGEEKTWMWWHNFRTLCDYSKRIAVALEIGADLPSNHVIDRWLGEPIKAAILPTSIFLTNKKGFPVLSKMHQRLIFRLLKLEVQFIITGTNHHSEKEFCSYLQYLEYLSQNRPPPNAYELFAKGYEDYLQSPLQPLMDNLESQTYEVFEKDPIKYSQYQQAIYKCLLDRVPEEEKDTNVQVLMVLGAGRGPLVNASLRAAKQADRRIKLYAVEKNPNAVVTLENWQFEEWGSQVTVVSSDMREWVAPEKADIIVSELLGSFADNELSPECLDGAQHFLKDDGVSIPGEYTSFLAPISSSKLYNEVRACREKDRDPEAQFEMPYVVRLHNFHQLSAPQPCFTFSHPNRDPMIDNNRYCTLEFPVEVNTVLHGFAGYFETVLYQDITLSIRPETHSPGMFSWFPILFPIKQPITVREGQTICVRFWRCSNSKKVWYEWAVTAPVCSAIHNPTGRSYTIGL
T1 sequence (Q9BQA1 with tags, fused parts or gaps partner limits assumed): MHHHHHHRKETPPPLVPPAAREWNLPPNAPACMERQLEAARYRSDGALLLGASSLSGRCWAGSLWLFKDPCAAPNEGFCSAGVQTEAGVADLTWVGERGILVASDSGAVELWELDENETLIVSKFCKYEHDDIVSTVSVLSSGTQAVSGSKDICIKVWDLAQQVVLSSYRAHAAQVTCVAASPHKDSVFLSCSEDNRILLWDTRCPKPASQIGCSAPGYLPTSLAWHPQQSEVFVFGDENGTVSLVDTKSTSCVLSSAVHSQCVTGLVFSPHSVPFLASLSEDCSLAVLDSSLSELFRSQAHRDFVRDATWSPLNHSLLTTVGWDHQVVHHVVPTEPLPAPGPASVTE

Row | SMILES | IC50 [2, 3] [nM] | EC50 [1] [nM] | IC50 ([2]; Biochemical IC50) [nM]
1 | O=C(COc1cccc2cccnc12)NCC(O)CN1CCc2ccccc2C1 (centres unmarked) [Compound A6] |  | 101 to 1000 | < 100
2 | O=C(COc1cccc(F)c1)NCC(O)CN1CCc2ccccc2C1 (centres unmarked) [Compound A7] | 101 to 1000 | 10000 to 50000 | 
3 | N#Cc1cccc(OCC(=O)NCC(O)CN2CCc3ccccc3C2)c1 (centres unmarked) [Compound A8] | 101 to 1000 | 10000 to 50000 | 
4 | Cc1ccc(OCC(=O)NCC(O)CN2CCc3ccccc3C2)cc1 (centres unmarked) [Compound A9] | 101 to 1000 | 10000 to 50000 | 
5 | N#Cc1ccc(OCC(=O)NCC(O)CN2CCc3ccccc3C2)cc1 (centres unmarked) [Compound A11] | 101 to 1000 | 10000 to 50000 | 
6 | COc1ccc(OCC(=O)NCC(O)CN2CCc3ccccc3C2)cc1 (centres unmarked) [Compound A12] | 101 to 1000 | 10000 to 50000 | 
7 | Cc1ccccc1OCC(=O)NCC(O)CN1CCc2ccccc2C1 (centres unmarked) [Compound A15] | 101 to 1000 | 1000 to 10000 | 
8 | O=C(COc1ccccc1F)NCC(O)CN1CCc2ccccc2C1 (centres unmarked) [Compound A16] | 101 to 1000 | 10000 to 50000 | 
9 | N#Cc1ccccc1OCC(=O)NCC(O)CN1CCc2ccccc2C1 (centres unmarked) [Compound A17] | 101 to 1000 | 10000 to 50000 | 
10 | O=C(CNc1ccccc1)NCC(O)CN1CCc2ccccc2C1 (centres unmarked) [Compound A18] | 1000 to 10000 | > 20000 | 
11 | CC(Oc1ccccc1)C(=O)NCC(O)CN1CCc2ccccc2C1 (centres unmarked) [Compound A19] | < 100 | 1000 to 10000 | 
12 | COc1cccc(OCC(=O)NCC(O)CN2CCc3ccccc3C2)c1 (centres unmarked) [Compound A20] | < 100 | 1000 to 10000 | 
13 | CC(=O)Nc1ccc(OCC(=O)NCC(O)CN2CCc3ccccc3C2)cc1 (centres unmarked) [Compound A21] | 101 to 1000 | > 20000 | 
14 | COc1ccccc1OCC(=O)NCC(O)CN1CCc2ccccc2C1 (centres unmarked) [Compound A22] | < 100 | 1000 to 10000 | 
15 | Cn1ncc2ccc(OCC(=O)NCC(O)CN3CCc4ccccc4C3)cc21 (centres unmarked) [Compound A23] | < 100 | 1000 to 10000 | 
16 | Cc1cccc(OCC(=O)NCC(O)CN2CCc3ccccc3C2)c1 (centres unmarked) [Compound A26] | < 100 | 1000 to 10000 | 
17 | CN(C)c1cccc(OCC(=O)NCC(O)CN2CCc3ccccc3C2)c1 (centres unmarked) [Compound A27] | < 100 | 1000 to 10000 | 
18 | CS(=O)(=O)Nc1cccc(OCC(=O)NCC(O)CN2CCc3ccccc3C2)c1 (centres unmarked) [Compound A28] | < 100 | 1000 to 10000 | 
19 | NC(=O)c1ccccc1OCC(=O)NCC(O)CN1CCc2ccccc2C1 (centres unmarked) [Compound A29] | 101 to 1000 | > 20000 | 
20 | CC(=O)Nc1cccc(OCC(=O)NCC(O)CN2CCc3ccccc3C2)c1 (centres unmarked) [Compound A31] | 1000 to 10000 | 10000 to 50000 | 

Row | SMILES | IC50 [2, 3] [nM] | EC50 [1] [nM] | IC50 ([2]; Biochemical IC50) [nM]
21 | O=C(COc1ccccc1)NC[C@H](O)CN1CCc2ccccc2C1 [Compound A32] | 101 to 1000 | 10000 to 50000 | 
22 | NC(=O)c1cccc(OCC(=O)NCC(O)CN2CCc3ccccc3C2)c1 (centres unmarked) [Compound A34] | 101 to 1000 | 10000 to 50000 | 
23 | CN(C)c1ccc(OCC(=O)NCC(O)CN2CCc3ccccc3C2)cc1 (centres unmarked) [Compound A35] | 101 to 1000 | 10000 to 50000 | 
24 | CC(=O)Nc1ccccc1OCC(=O)NCC(O)CN1CCc2ccccc2C1 (centres unmarked) [Compound A36] | 101 to 1000 | > 20000 | 
25 | CS(=O)(=O)c1ccccc1OCC(=O)NCC(O)CN1CCc2ccccc2C1 (centres unmarked) [Compound A37] | < 100 | 1000 to 10000 | 
26 | CN(C)c1ccccc1OCC(=O)NCC(O)CN1CCc2ccccc2C1 (centres unmarked) [Compound A38] | < 100 | 1000 to 10000 | 
27 | CC(Oc1cccc2cccnc12)C(=O)NCC(O)CN1CCc2ccccc2C1 (centres unmarked) [Compound A39] | < 100 | 101 to 1000 | 
28 | O=C(COc1ccccc1C1CCCCC1)NCC(O)CN1CCc2ccccc2C1 (centres unmarked) [Compound A40] | < 100 | 1000 to 10000 | 
29 | CS(=O)(=O)Nc1ccc(OCC(=O)NCC(O)CN2CCc3ccccc3C2)cc1 (centres unmarked) [Compound A42] | 101 to 1000 | > 20000 | 
30 | CC(C)(Oc1cccc2cccnc12)C(=O)NCC(O)CN1CCc2ccccc2C1 (centres unmarked) [Compound A43] | < 100 | 1000 to 10000 | 
31 | O=C(COc1cccc2cccnc12)NC[C@H](O)CN1CCc2ccccc2C1 [Compound A44] |  | 10000 to 50000 | 101 to 1000
32 | O=C(COc1cccc2cccnc12)NC[C@@H](O)CN1CCc2ccccc2C1 [Compound A45] |  | 101 to 1000 | < 100
33 | Cn1cnc2cc(OCC(=O)NCC(O)CN3CCc4ccccc4C3)ccc21 (centres unmarked) [Compound A46] | 101 to 1000 | 10000 to 50000 | 
34 | CS(=O)(=O)c1cccc(OCC(=O)NCC(O)CN2CCc3ccccc3C2)c1 (centres unmarked) [Compound A47] | < 100 | 1000 to 10000 | 
35 | O=C(COc1cccc2ccc(N3CCOCC3)nc12)NCC(O)CN1CCc2ccccc2C1 (centres unmarked) [Compound A48] | < 100 | 10000 to 50000 | 
36 | O=C(COc1ccccc1N1CCOCC1)NCC(O)CN1CCc2ccccc2C1 (centres unmarked) [Compound A49] | < 100 | 1000 to 10000 | 
37 | O=C(COc1ccccc1-c1cc[nH]n1)NCC(O)CN1CCc2ccccc2C1 (centres unmarked) [Compound A50] | < 100 | 1000 to 10000 | 
38 | CS(=O)(=O)Nc1ccccc1OCC(=O)NCC(O)CN1CCc2ccccc2C1 (centres unmarked) [Compound A53] | < 100 | 1000 to 10000 | 
39 | O=C(COc1cccc2c1CCCC2)NCC(O)CN1CCc2ccccc2C1 (centres unmarked) [Compound A64] | < 100 | 1000 to 10000 | 

Further lines, with some results ahead:

Row | IC50 [2, 3] [nM] | SMILES | EC50 [1] [nM] | IC50 ([2]; Biochemical IC50) [nM]
40 | < 100 | NS(=O)(=O)c1ccccc1OCC(=O)NCC(O)CN1CCc2ccccc2C1 (centres unmarked) [Compound A65] | 1000 to 10000 | 
41 | < 100 | O=C(COc1cccc2ccccc12)NCC(O)CN1CCc2ccccc2C1 (centres unmarked) [Compound A66] | 1000 to 10000 | 
42 | < 100 | O=C(COc1ccccc1-c1cc[nH]n1)NC[C@@H](O)CN1CCc2ccccc2C1 [Compound A67] | 1000 to 10000 | 
43 | < 100 | O=C(COc1ccccc1-c1cc[nH]n1)NC[C@H](O)CN1CCc2ccccc2C1 [Compound A68] | > 20000 | 
44 | < 100 | O=C(COc1ccc2ncn(C3CCNCC3)c2c1)NCC(O)CN1CCc2ccccc2C1 (centres unmarked) [Compound A70] | > 20000 | 
45 | < 100 | CN1CCC(n2cnc3ccc(OCC(=O)NCC(O)CN4CCc5ccccc5C4)cc32)CC1 (centres unmarked) [Compound A71] | > 20000 | 
46 | < 100 | C[C@@H](Oc1cccc2cccnc12)C(=O)NC[C@H](O)CN1CCc2ccccc2C1 [Compound A73] | 101 to 1000 | 
47 | < 100 | C[C@@H](Oc1cccc2cccnc12)C(=O)NC[C@@H](O)CN1CCc2ccccc2C1 [Compound A74] | 1000 to 10000 | 
48 | < 100 | CN1CCC(n2ncc3cc(OCC(=O)NCC(O)CN4CCc5ccccc5C4)ccc32)C1 (centres unmarked) [Compound A96] | 10000 to 50000 | 
49 | 101 to 1000 | COc1ccc2cccc(OCC(=O)NC[C@H](O)CN3CCc4ccccc4C3)c2n1 [Compound A97] | 1000 to 10000 | 
50 | < 100 | COc1ccc2cccc(OCC(=O)NC[C@@H](O)CN3CCc4ccccc4C3)c2n1 [Compound A98] | 1000 to 10000 | 
51 | < 100 | CN1CCc2c(cccc2OCC(=O)NCC(O)CN2CCc3ccccc3C2)C1 (centres unmarked) [Compound A99] | 1000 to 10000 | 
52 | < 100 | O=C(COc1cccc2c1OCCO2)NCC(O)CN1CCc2ccccc2C1 (centres unmarked) [Compound A100] | 1000 to 10000 | 
53 | < 100 | CC(=O)N1CCc2c(cccc2OCC(=O)NCC(O)CN2CCc3ccccc3C2)C1 (centres unmarked) [Compound A101] | 1000 to 10000 | 
54 | < 100 | CS(=O)(=O)N1CCc2c(cccc2OCC(=O)NCC(O)CN2CCc3ccccc3C2)C1 (centres unmarked) [Compound A102] | 1000 to 10000 | 
55 | < 100 | O=C(COc1ccccc1C1CCNCC1)NCC(O)CN1CCc2ccccc2C1 (centres unmarked) [Compound A103] | > 20000 | 
56 | 101 to 1000 | CN(C)c1ccc2cccc(OCC(=O)NC[C@H](O)CN3CCc4ccccc4C3)c2n1 [Compound A104] | > 20000 | 
57 | < 100 | CN(C)c1ccc2cccc(OCC(=O)NC[C@@H](O)CN3CCc4ccccc4C3)c2n1 [Compound A105] | 1000 to 10000 | 
58 | 101 to 1000 | CS(=O)(=O)N1CCN(c2ccccc2OCC(=O)NCC(O)CN2CCc3ccccc3C2)CC1 (centres unmarked) [Compound A106] | > 20000 | 
59 | < 100 | O=C(COc1ccccc1S(=O)(=O)N1CCNCC1)NCC(O)CN1CCc2ccccc2C1 (centres unmarked) [Compound A107] | 1000 to 10000 | 
60 | < 100 | CN1CCN(S(=O)(=O)c2ccccc2OCC(=O)NCC(O)CN2CCc3ccccc3C2)CC1 (centres unmarked) [Compound A108] | 10000 to 50000 | 
61 | < 100 | CN(C)S(=O)(=O)c1ccccc1OCC(=O)NCC(O)CN1CCc2ccccc2C1 (centres unmarked) [Compound A109] | 101 to 1000 | 

Reference: patent US20150344457A1, “METHODS OF INHIBITING PRMT5” (EPIZYME, INC., priority 2012, published 2015)
